Experimental data as given in EPA's CvTdb concentration-time database (doi:10.1093/toxsci/kfy020).

Key:
Assay in all cases: concentration in plasma after dosing
rat [1] = tested on: rat
rat [2] = settings: dosed: Pentadecafluorooctanoic acid, 0.2000000000 mg/kg, iv, male, Sprague-Dawley
rat [3] = settings: dosed: Pentadecafluorooctanoic acid, 0.2000000000 mg/kg, iv, male, Sprague-Dawley; remark: listed apart in the source
rat [4] = settings: dosed: Pentadecafluorooctanoic acid, 0.2000000000 mg/kg, iv, male, Sprague-Dawley; remark: listed apart in the source
rat [5] = settings: dosed: Pentadecafluorooctanoic acid, 1.0000000000 mg/kg, oral, male, Sprague-Dawley
rat [6] = settings: dosed: Pentadecafluorooctanoic acid, 1.0000000000 mg/kg, oral, male, Sprague-Dawley; remark: listed apart in the source
rat [7] = settings: dosed: Pentadecafluorooctanoic acid, 1.0000000000 mg/kg, oral, male, Sprague-Dawley; remark: listed apart in the source
rat [8] = settings: dosed: Diazinon-o-analog, 1.02 mg/kg, iv, male, Sprague-Dawley
rat [9] = settings: dosed: Diazinon-o-analog, 5.02 mg/kg, oral, male, Sprague-Dawley
rat [10] = settings: dosed: Diazinon-o-analog, 5.02 mg/kg, oral, male, Sprague-Dawley; remark: listed apart in the source
rat [11] = settings: dosed: Diazinon-o-analog, 1.02 mg/kg, iv, male, Sprague-Dawley; remark: listed apart in the source

O=C(O)C(F)(F)C(F)(F)C(F)(F)C(F)(F)C(F)(F)C(F)(F)C(F)(F)F [Pentadecafluorooctanoic acid]
rat [1], dosed: Pentadecafluorooctanoic acid, male, Sprague-Dawley
Settings | concentration in plasma [ng/mL]
0.25 h, 1.0000000000 mg/kg, oral | 420
0.5 h, 0.2000000000 mg/kg, iv | 156
0.5 h, 1.0000000000 mg/kg, oral | 584
1 h, 0.2000000000 mg/kg, iv | 145
1 h, 1.0000000000 mg/kg, oral | 885
2 h, 0.2000000000 mg/kg, iv | 150
2 h, 1.0000000000 mg/kg, oral | 1170
4 h, 0.2000000000 mg/kg, iv | 141
4 h, 1.0000000000 mg/kg, oral | 1190
5 min, 0.2000000000 mg/kg, iv | 221
8 h, 0.2000000000 mg/kg, iv | 123
8 h, 1.0000000000 mg/kg, oral | 1140
10 min, 0.2000000000 mg/kg, iv | 188
12 h, 0.2000000000 mg/kg, iv | 142
12 h, 1.0000000000 mg/kg, oral | 1120
24 h, 0.2000000000 mg/kg, iv | 139
24 h, 1.0000000000 mg/kg, oral | 1270
48 h, 0.2000000000 mg/kg, iv | 59
48 h, 1.0000000000 mg/kg, oral | 911
72 h, 0.2000000000 mg/kg, iv | 100
72 h, 1.0000000000 mg/kg, oral | 655

concentration in plasma [ng/mL]
Settings | rat [2] | rat [3] | rat [4] | rat [5] | rat [6] | rat [7]
0.25 h | – | – | – | 762 | 363 | 248
0.5 h | 188 | 150 | 245 | 608 | 540 | 379
1 h | 189 | 144 | 226 | 897 | 669 | 665
2 h | 196 | 138 | 236 | 950 | 957 | 764
4 h | 189 | 168 | 196 | 924 | 1040 | 765
5 min | 257 | 208 | 310 | – | – | –
8 h | 171 | 148 | 207 | 1210 | 1100 | 955
10 min | 207 | 176 | 280 | – | – | –
12 h | 135 | 147 | 194 | 1180 | 1100 | 1030
24 h | 168 | 141 | 195 | 1130 | 1040 | 1010
48 h | 148 | 115 | 161 | 916 | 1510 | 857
72 h | 122 | 98 | 153 | 855 | 663 | 563

CCOc1ccc(NC(C)=O)cc1 [Phenacetin]
rat [1], dosed: Phenacetin, 23.0000000000 mg/kg, iv, male, Sprague-Dawley
Settings | concentration in plasma [ng/mL]
0.25 h | 18900
0.5 h | 16100
0.75 h | 12200
1 h | 9020
1.5 h | 6630
2 h | 4320
2.5 min | 26300
5 min | 24300
10 min | 21800

CCOP(=O)(OCC)Oc1cc(C)nc(C(C)C)n1 [Diazinon-o-analog]
rat [1], dosed: Diazinon-o-analog, male, Sprague-Dawley
Settings | concentration in plasma [ng/mL]
0.167 h, 1.02 mg/kg, iv | 596
0.25 h, 5.02 mg/kg, oral | 916
0.5 h, 1.02 mg/kg, iv | 597
0.5 h, 5.02 mg/kg, oral | 846
1 h, 1.02 mg/kg, iv | 356
1 h, 5.02 mg/kg, oral | 1180
2 h, 1.02 mg/kg, iv | 271
2 h, 5.02 mg/kg, oral | 1140
4 h, 1.02 mg/kg, iv | 174
4 h, 5.02 mg/kg, oral | 715
5 min, 1.02 mg/kg, iv | 564
8 h, 1.02 mg/kg, iv | 57.9
8 h, 5.02 mg/kg, oral | 298
24 h, 1.02 mg/kg, iv | 1.14
24 h, 5.02 mg/kg, oral | 2.63
48 h, 5.02 mg/kg, oral | 1.84
72 h, 1.02 mg/kg, iv | 0.481
72 h, 5.02 mg/kg, oral | 0.239

concentration in plasma [ng/mL]
Settings | rat [8] | rat [9] | rat [10] | rat [11]
0.167 h | 337 | – | – | 374
0.25 h | – | 1780 | 1220 | –
0.5 h | 349 | 330 | 1070 | 1340
1 h | 440 | 1040 | 1060 | 413
2 h | 294 | 786 | 948 | 286
4 h | 155 | 745 | 784 | 188
5 min | 214 | – | – | 247
8 h | 59.5 | 316 | 292 | 60.9
24 h | 0.498 | 5.04 | 4.31 | 0.552
48 h | – | 0.193 | 0.116 | 0.0484
72 h | 0.247 | 3.73 | 1.21 | –

COc1ccc([C@@H]2Sc3ccccc3N(CCN(C)C)C(=O)[C@@H]2OC(C)=O)cc1 [Diltiazem]
concentration in plasma [ng/mL], rat [1], dosed: Diltiazem, 20.0000000000 mg/kg, male, Sprague-Dawley
Settings | 0.16 h | 0.25 h | 1 h | 1.5 h | 2 h | 3 h | 4 h | 6 h | 8 h | 10 h
iv | 7870 | 5050 | 2530 | 1510 | 956 | 636 | 202 | 69.3 | 78 | 22.5
oral | 1220 | 488 | 248 | 189 | 271 | 160 | 52.8 | 19.4 | – | –

CNC(=O)Oc1cccc(N=CN(C)C)c1.Cl [Formetanate hydrochloride]
concentration in plasma [ng/mL], rat [1], dosed: Formetanate hydrochloride, male, Sprague-Dawley
Settings | 0.25 h | 1 h | 2 h | 24 h | 48 h | 72 h
1.0000000000 mg/kg, iv | – | – | – | 7.9 | 2.2 | –
5.0000000000 mg/kg, oral | 262 | 53.2 | 9.57 | 1.64 | 12.4 | 5.13

COCCc1ccc(OC[C@H](O)CNC(C)C)cc1 [R-Metoprolol]
rat [1], dosed: Metoprolol, 15.0000000000 mg/kg, oral, male, Wistar
Settings | concentration in plasma [ng/mL]
1 h | 24.4
1.5 h | 10.1
2 h | 12.2
2 min | 199
2.5 h | 4.49
3 h | 2.07
4 h | 1.05
4 min | 380
8 min | 84.6
10 min | 108
20 min | 79.3
40 min | 53.9
50 min | 35.4

Cc1ncc2n1-c1ccc(Cl)cc1C(c1ccccc1F)=NC2 [Midazolam]
concentration in plasma [ng/mL], rat [1], dosed: Midazolam, male, Sprague-Dawley
Settings | 0.25 h | 0.5 h | 1 h | 1.5 h | 2 h | 3 h | 4 h | 5 min | 10 min
5.0000000000 mg/kg, iv | 964 | 570 | 255 | 125 | 62.5 | 16.1 | 1 | 2210 | 1080
15.0000000000 mg/kg, oral | 134 | 163 | 123 | 113 | 88.5 | 37.7 | 19.8 | 12.9 | 71.1

CCOP(=S)(OCC)Oc1nc(Cl)c(Cl)cc1Cl [Chlorpyrifos]
concentration in plasma [ng/mL], rat [1], dosed: Chlorpyrifos, oral, male, F344
Settings | 1 h | 3 h | 5 min | 6 h | 12 h | 20 min
5.0000000000 mg/kg | 1.39 | 30 | – | 13.1 | 1.81 | –
10.0000000000 mg/kg | 5.05 | 109 | – | 18.7 | 1.76 | –
50.0000000000 mg/kg | 51 | 326 | 0.559 | 79.3 | 15.5 | 1.42
100.0000000000 mg/kg | 246 | 759 | 0.665 | 202 | 278 | 7.47

CCCC(CCC)C(=O)O [Valproic acid]
concentration in plasma [ng/mL], rat [1], dosed: Valproic acid, iv, Wistar
Settings | 10.0000000000 mg/kg | 50.0000000000 mg/kg | 100.0000000000 mg/kg
0.017 h | 69900 | 290000 | 511000
0.05 h | 49300 | 256000 | 427000
0.083 h | 36300 | 228000 | 369000
0.167 h | 32000 | 199000 | 329000
0.25 h | 25700 | 168000 | 290000
0.5 h | 14700 | 120000 | 250000
0.75 h | 9080 | 72500 | 218000
1 h | 5100 | 42900 | 171000
2 h | 1200 | 5190 | 43700
3 h | 494 | 2040 | 4030
4 h | 298 | 905 | 1600

concentration in plasma [ng/mL], rat [1], dosed: Valproic acid, oral, female, Sprague-Dawley
Settings | 0.25 h | 0.5 h | 0.75 h | 1 h | 2 h | 4 h
200.0000000000 mg/kg | 269000 | 333000 | 246000 | 182000 | 95600 | 23000
600.0000000000 mg/kg | 558000 | 841000 | 755000 | 691000 | 643000 | 294000

COCCc1ccc(OC[C@@H](O)CNC(C)C)cc1 [S-Metoprolol]
rat [1], dosed: Metoprolol, 15.0000000000 mg/kg, oral, male, Wistar
Settings | concentration in plasma [ng/mL]
0.1 h | 93.2
0.5 h | 53
1 h | 13.9
1.5 h | 8.15
2 h | 6.61
2 min | 219
2.5 h | 2.14
3 h | 1.45
4 min | 425
8 min | 79.3
10 min | 68.6
20 min | 54.7
40 min | 38.4
50 min | 24.4
